Data taken from article PMC11640973, “The Detection of Toxic Amyloid-β Fibril Fragments Through a Surface Plasmon Resonance Immunoassay” (International Journal of Molecular Sciences, 2024).
One block for each molecule: values may come before it.

How the values were obtained:
[1] = SPR-based approach; ref [21]; cited from earlier work
Source text: In order to reliably detect transient oligomeric species in a mixture of aggregated species without sample manipulation, an immunoassay based on surface plasmon resonance (SPR) has been proposed. This method exploits the properties of an anti-Aβ antibody (4G8) for a direct and simultaneous determination of monomers and biologically relevant (i.e., toxic) transient oligomeric species, also distinguishing the latter from large fibrils. SPR is a highly quantitative technique for measuring binding kinetics and determining monomer concentrations. However, in the context of aggregation assays ...

[2] = stock solution in 50 mM NaOH (1 mg/mL), −80 °C; ref [38]; cited from earlier work
Description: To further validate our results, we used native forms of Aβ42. Lyophilized recombinant Aβ42 (rPepride) and the synthetic Aβ42 (Bachem) were suspended in a 50 mM NaOH solution (1 mg/mL) following the protocol of Taylor et al., which provides a simple and reliable method for the high-yield preparation of seedless Aβ monomers. […] This validated approach reduces handling variability and ensures reproducibility in experiments.

[3] = Aβ42 compared to Aβ40; ref [35]; cited from earlier work
Description: The lyophilized powder obtained from the synthesis and purification was suspended in 0.02% Trifluoracetic acid (TFA). The final pH of the solution was 2.8, ensuring the stability of the depsi bond and preventing premature conversion to the native peptide. The concentration was measured using UV ...

anti-Aβ antibody 4G8 = assay: SPR immunoassay of Aβ42 binding to immobilized anti-Aβ antibody 4G8
Source text: This binding profile resembles closely that described previously for a solution containing monomers only. […]
For the present work, we used both the ProteOn™ XPR36 Protein Interaction Array system (Bio-Rad Laboratories, Hercules, CA, USA) and the Sierra SPR®-32 Pro (Bruker, Billerica, MA, USA). The ProteOn™ XPR36 allows for the preparation of six parallel lanes, each representing a different surface on a single chip, with, for instance, five lanes used for ligand (target) immobilization and one designated as a reference. By rotating the chip, each ligand surface can interact with up to six analytes, enabling the simultaneous analysis of up to 36 unique interactions in a single run. The Sierra SPR®-32 Pro is configured with 8 separate channels, each containing four detection spots, one of which serves as a reference spot, enabling analysis with up to 8 samples per run.
The anti-Aβ antibody 4G8 (Signet Laboratories, Emeryville, CA, USA) was immobilized on a CMD50L sensor chip (XanTec bioanalytics, Düsseldorf, Germany) using standard amine coupling chemistry, following standard protocols. A solution of 30 µg/mL 4G8 antibody in 20 mM acetate buffer pH 5.0 was injected for immobilization.
To monitor the aggregation of Aβ42 over time, we followed the general protocol described above. Briefly, Aβ42 was prepared at a final concentration of 50 µM in PBS and incubated at 37 °C. Samples were collected at various time points (0, 6, and 120 h) to capture distinct aggregated forms corresponding to monomers, oligomers/small fibrils, and fibrils. […] The signal from the 4G8-immobilized surface was corrected by subtracting the nonspecific response observed on the empty parallel reference surface.

SHSY-5Y cells = assay: MTT toxicity assay on SHSY-5Y cells; type: cell-based; conditions: 24 h; for toxic effect (cell viability): Bachem Aβ42, 10 to 100 nM; for cell viability (of control): 10 nM, 95%CI fibrils 67.3–76.0%, fragmented 39.6–48.0%; for cell viability (of control) / cell viability (of controls): Bachem Aβ42, fibrils from 48 h at 37 °C, three sessions each in triplicate; for cell viability (of controls): 30 nM, 95%CI fibrils 52.1–57.3, fragmented 39.7–45.71%; for cell viability versus vehicle control cells: 10 to 100 nM, fibrils ± sonication, p < 0.01, one-way ANOVA
Description: SHSY-5Y cell survival was assessed using the MTT colorimetric assay after exposure to Aβ species—including monomers (t = 0), fibrils, and sonicated fibrils (48 h)—prepared and incubated at a concentration of 100 µM for aggregation. As described in the sample preparation chapter, cells were exposed to these Aβ species at final concentrations of 10, 30, and 100 nM for 24 h. Following exposure, cells were incubated with a culture medium (100 µL/well) containing a 1:10 dilution of Thiazolyl blue tetrazolium bromide (MTT; 4 mg dissolved in 1 mL DPBS). The plates were then placed in the incubator for 3 h. At the end of the incubation, the medium containing MTT was replaced with HCl-Isopropanol (1N HCl diluted 1:25 in 100% isopropanol). The absorbance of the colored solution was measured at 540 nm using a microplate spectrophotometer (F500 Infinity, Tecan, Männedorf, Switzerland).
Statistical calculations were performed using GraphPad Prism (version 9.4; GraphPad Software, Bethesda, MD, USA). Paired t-tests were used to analyze differences between experimental conditions (e.g., Figure 3), while one-way ANOVA followed by Tukey’s post hoc test was applied for multiple group comparisons (e.g., Figure 4). The data are presented as mean ± standard deviation (SD). The statistical significance was defined as p < 0.05.

[4] = incubated 5 days, then one freeze–thaw cycle
[5] = freshly prepared Aβ42 (t = 0), 5 µM
[6] = freshly prepared Aβ42 (t = 0), 5 µM in PBST (0.005% Tween), flowed over immobilized 4G8

Molecule: O=C(O[C@@H]1Cc2c(O)cc(O)cc2O[C@@H]1c1cc(O)c(O)c(O)c1)c1cc(O)c(O)c(O)c1 [epigallocatechin gallate]
effect on formation of Aβ42 oligomers [1]: inhibited

dissociation of most of the binding signal (anti-Aβ antibody 4G8; 50 µM in PBS incubated 6 h at 37 °C, diluted to 5 µM, 15 min dissociation phase): very slow dissociation | decrease in the monomer signal (anti-Aβ antibody 4G8; 6 h of aggregation, 50 µM in PBS, 37 °C): 56% | time to complete dissociation of signal (anti-Aβ antibody 4G8; incubated 5 days at 37 °C (residual monomers)): ≤ 15 min | SPR signals (anti-Aβ antibody 4G8; [4]): marked increase in the SPR signals | absolute amount of monomers (anti-Aβ antibody 4G8; [4]): decreased
Molecule: Amyloid-β1–42 [Aβ42]
stability of monomeric state [2]: at least 40 days | aggregation propensity [3]: higher aggregation propensity | SPR binding signal on immobilized 4G8 (anti-Aβ antibody 4G8; 50 µM in PBS incubated 6 h at 37 °C, diluted to 5 µM, versus t = 0): marked increase in the SPR binding signal | oligomer-dependent SPR signal (slow dissociation) (anti-Aβ antibody 4G8; fragmentation by freeze–thaw or sonication, eight independent experiments, rPeptide, Bachem or depsi-peptide Aβ42, Proteon or Bruker, p = 0.0012 paired t-test): fragmentation-induced increase in SPR-detected Aβ42 oligomers | SPR signal (anti-Aβ antibody 4G8; incubated 5 days at 37 °C, versus 6 h and freshly prepared): much lower SPR signal compared to the solution incubated for 6 h (Figure 2c), and even lower than that of the freshly prepared solution

Molecule: Aβ40: Aβ1–40, fragment of Amyloid Precursor Protein [reference compound]
aggregation propensity [3]: aggregates more slowly

KD (calculated from the ratio koff/kon) (anti-Aβ antibody 4G8; Aβ42 monomer binding to immobilized 4G8, t = 0): about 140 nM | time to complete dissociation (anti-Aβ antibody 4G8; [5]): ≤ 15 min | time to saturation of SPR binding signal (anti-Aβ antibody 4G8; [5]): ≈ 1 min | koff (anti-Aβ antibody 4G8; [6]): 0.0044 s⁻¹ | kon (anti-Aβ antibody 4G8; [6]): 31000 M⁻¹ s⁻¹
Molecule: Aβ42 monomer: freshly prepared Aβ42 solution (t = 0), containing monomers only
toxic effect (cell viability) (SHSY-5Y cells; MTT): rule out any toxic effect

recognition of fibrillar macroaggregates by SPR (anti-Aβ antibody 4G8; incubated 5 days at 37 °C): not recognized by SPR
Molecule: fibrillar macroaggregates: Aβ42 incubated 5 days, larger suprafibrillar macroaggregates

Molecule: fibrils: Aβ42 purchased from Bachem, fibrils obtained after 48 h incubation at 37 °C
cell viability (of control) (SHSY-5Y cells; MTT): 71.6% | cell viability (of controls) (SHSY-5Y cells; MTT): 54.73% | cell viability versus vehicle control cells (SHSY-5Y cells): significantly different from the viability of control cells | toxic effect (cell viability) (SHSY-5Y cells; MTT): concentration-dependent toxicity

Molecule: sonicated fibrils: Aβ42 fibrils produced by tip sonication (1 min 10% power 30% cycles)
cell viability (of control) (SHSY-5Y cells; MTT): 43.8% | cell viability (of controls) (SHSY-5Y cells; MTT): 42.7% | cell viability versus vehicle control cells (SHSY-5Y cells): significantly different from the viability of control cells | fibril toxicity, change by fragmentation (SHSY-5Y cells; sonicated versus unfragmented fibrils, 10 and 30 nM, MTT): significantly increased by fragmentation
